Reference: US8076338B2, “Kinase modulators and methods of use” (Exelixis, Inc., priority 2004, dated 2011)
Read-outs that look alike come from different tables or passages of the source.

Key:
[1] = target: p70S6K (Homo sapiens, UniProt P23443); experiment: Luciferase-coupled chemiluminescence kinase assay (ATP consumption); assay type: biochemical
Procedure, shortened: (§1)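 Activity is read as ATP depletion: luciferase-luciferin reagent added after a 3 h ambient-temperature kinase reaction, with total ATP use limited to 25-60%. Before ATP addition, 2.5-5 nM kinase and compound were preincubated 30 min in Tris pH 7.5/MgCl2/TX-100/DTT buffer; […].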

[2] = target: AktK (Homo sapiens, UniProt P31749); experiment: as above; assay type: biochemical; details: read-out: AKT-1 IC50
Procedure, shortened: as §1

Sequence of p70S6K (P23443 whole entry): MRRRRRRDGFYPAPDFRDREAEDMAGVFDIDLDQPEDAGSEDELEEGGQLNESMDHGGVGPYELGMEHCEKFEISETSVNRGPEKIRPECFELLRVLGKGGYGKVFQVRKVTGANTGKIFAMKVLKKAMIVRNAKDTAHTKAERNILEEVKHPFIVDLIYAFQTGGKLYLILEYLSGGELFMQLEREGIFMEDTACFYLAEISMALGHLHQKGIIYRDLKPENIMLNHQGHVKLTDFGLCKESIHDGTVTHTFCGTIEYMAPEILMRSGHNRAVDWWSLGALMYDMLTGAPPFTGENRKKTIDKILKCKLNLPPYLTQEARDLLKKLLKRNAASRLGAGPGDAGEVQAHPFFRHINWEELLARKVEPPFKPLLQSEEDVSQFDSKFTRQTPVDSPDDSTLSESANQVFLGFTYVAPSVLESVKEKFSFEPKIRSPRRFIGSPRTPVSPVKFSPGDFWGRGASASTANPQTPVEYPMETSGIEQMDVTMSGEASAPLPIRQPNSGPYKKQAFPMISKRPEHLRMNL
Sequence of AktK (P31749 whole entry): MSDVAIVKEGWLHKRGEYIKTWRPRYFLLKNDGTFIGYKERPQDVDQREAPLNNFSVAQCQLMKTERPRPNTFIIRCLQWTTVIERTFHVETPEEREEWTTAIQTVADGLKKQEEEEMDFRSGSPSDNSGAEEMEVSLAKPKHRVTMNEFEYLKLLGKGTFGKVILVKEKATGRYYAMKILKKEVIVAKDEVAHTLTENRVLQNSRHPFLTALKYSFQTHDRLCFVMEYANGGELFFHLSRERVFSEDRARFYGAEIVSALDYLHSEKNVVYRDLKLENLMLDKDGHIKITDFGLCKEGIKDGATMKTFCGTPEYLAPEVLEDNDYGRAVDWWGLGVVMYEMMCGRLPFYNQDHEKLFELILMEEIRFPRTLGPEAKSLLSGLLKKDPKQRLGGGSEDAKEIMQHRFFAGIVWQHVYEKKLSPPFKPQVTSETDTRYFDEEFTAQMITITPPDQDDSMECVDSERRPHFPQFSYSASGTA

CCc1n[nH]c2ncnc(N3CCN(c4cc(Cl)c(O)cc4C)CC3)c12 [Entry 381, 2-chloro-4-[4-(3-ethyl-1H-pyrazolo[3,4-d]pyrimidin-4-yl)piperazin-1-yl]-5-methylphenol]
IC50 [1]: < 100 nM | IC50 [2]: 1000 to 10000 nM

CCc1n[nH]c2ncnc(N3CCN(c4cccc(Cl)c4)C(C(=O)NC4CCN(C)CC4)C3)c12 (stereo not shown) [Entry 382, 1-(3-chlorophenyl)-4-(3-ethyl-1H-pyrazolo[3,4-d]pyrimidin-4-yl)-N-(1-methylpiperidin-4-yl)piperazine-2-carboxamide]
IC50 [1]: 1000 to 10000 nM | IC50 [2]: ≥ 10000 nM

CCc1n[nH]c2ncnc(N3CCN(c4cccc(Cl)c4)C(C(=O)NCCN4CCOCC4)C3)c12 (stereo not shown) [Entry 383, 1-(3-chlorophenyl)-4-(3-ethyl-1H-pyrazolo[3,4-d]pyrimidin-4-yl)-N-(2-morpholin-4-ylethyl)piperazine-2-carboxamide]
IC50 [1]: 1000 to 10000 nM | IC50 [2]: ≥ 10000 nM

CCc1n[nH]c2ncnc(N3CCN(c4cc(Cl)cc(OCCN(C)C)c4OC)CC3)c12 [Entry 384, 2-{[5-chloro-3-[4-(3-ethyl-1H-pyrazolo[3,4-d]pyrimidin-4-yl)piperazin-1-yl]-2-(methyloxy)phenyl]oxy}-N,N-dimethylethanamine]
IC50 [1]: < 100 nM | IC50 [2]: 1000 to 10000 nM

CCc1n[nH]c2ncnc(N3CCN(c4cc(Cl)cc(C#CCN(C)C)c4C)CC3)c12 [Entry 385, 3-{5-chloro-3-[4-(3-ethyl-1H-pyrazolo[3,4-d]pyrimidin-4-yl)piperazin-1-yl]-2-methylphenyl}-N,N-dimethylprop-2-yn-1-amine]
IC50 [1]: < 100 nM | IC50 [2]: 1000 to 10000 nM

CCc1n[nH]c2ncnc(N3CCN(c4cc(Cl)cc(NCCN(C)C)c4C)CC3)c12 [Entry 386, N′-{5-chloro-3-[4-(3-ethyl-1H-pyrazolo[3,4-d]pyrimidin-4-yl)piperazin-1-yl]-2-methylphenyl}-N,N-dimethylethane-1,2-diamine]
IC50 [1]: < 100 nM | IC50 [2]: 100 to 1000 nM

Cc1ccc(Cl)cc1N1CCN(c2ncnc3[nH]nc(/C=C/C(=O)OC(C)(C)C)c23)CC1 [Entry 387, 1,1-dimethylethyl (2E)-3-{4-[4-(5-chloro-2-methylphenyl)piperazin-1-yl]-1H-pyrazolo[3,4-d]pyrimidin-3-yl}prop-2-enoate]
IC50 [1]: 100 to 1000 nM | IC50 [2]: 1000 to 10000 nM

CCc1n[nH]c2ncnc(N3CCN(c4cc(Cl)c(OCCCN(C)C)cc4C)CC3)c12 [Entry 388, 3-({2-chloro-4-[4-(3-ethyl-1H-pyrazolo[3,4-d]pyrimidin-4-yl)piperazin-1-yl]-5-methylphenyl}oxy)-N,N-dimethylpropan-1-amine]
IC50 [1]: 100 to 1000 nM | IC50 [2]: 1000 to 10000 nM

CCc1n[nH]c2ncnc(N3CCN(c4cc(Cl)c(OCCN(C)C)cc4C)CC3)c12 [Entry 389, 2-({2-chloro-4-[4-(3-ethyl-1H-pyrazolo[3,4-d]pyrimidin-4-yl)piperazin-1-yl]-5-methylphenyl}oxy)-N,N-dimethylethanamine]
IC50 [1]: 100 to 1000 nM | IC50 [2]: 1000 to 10000 nM

CCc1n[nH]c2ncnc(N3CCN(c4cc(Cl)c(OC)cc4C)CC3)c12 [Entry 390, 4-{4-[5-chloro-2-methyl-4-(methyloxy)phenyl]piperazin-1-yl}-3-ethyl-1H-pyrazolo[3,4-d]pyrimidine]
IC50 [1]: < 100 nM | IC50 [2]: 1000 to 10000 nM

Cc1ccc(Cl)cc1N1CCN(c2ncnc3[nH]nc(N4CCN(C)CC4)c23)CC1 [Entry 391, 4-[4-(5-chloro-2-methylphenyl)piperazin-1-yl]-3-(4-methylpiperazin-1-yl)-1H-pyrazolo[3,4-d]pyrimidine]
IC50 [1]: 1000 to 10000 nM | IC50 [2]: 1000 to 10000 nM

CCN(CC)CC#Cc1n[nH]c2ncnc(N3CCN(c4cc(Cl)ccc4C)CC3)c12 [Entry 392, 3-{4-[4-(5-chloro-2-methylphenyl)piperazin-1-yl]-1H-pyrazolo[3,4-d]pyrimidin-3-yl}-N,N-diethylprop-2-yn-1-amine]
IC50 [1]: < 100 nM | IC50 [2]: 1000 to 10000 nM

Cc1ccc(Cl)cc1N1CCN(c2ncnc3[nH]nc(C#CCO)c23)CC1 [Entry 393, 3-{4-[4-(5-chloro-2-methylphenyl)piperazin-1-yl]-1H-pyrazolo[3,4-d]pyrimidin-3-yl}prop-2-yn-1-ol]
IC50 [1]: < 100 nM | IC50 [2]: 100 to 1000 nM

Cc1ccc(Cl)cc1N1CCN(c2ncnc3[nH]nc(CC4CCNCC4)c23)CC1 [Entry 394, 4-[4-(5-chloro-2-methylphenyl)piperazin-1-yl]-3-(piperidin-4-ylmethyl)-1H-pyrazolo[3,4-d]pyrimidine]
IC50 [1]: 1000 to 10000 nM | IC50 [2]: 1000 to 10000 nM

Cc1ccc(Cl)cc1N1CCN(c2ncnc3[nH]nc(C=C4C[C@@H]5CN(C(=O)OCc6ccccc6)C[C@@H]5C4)c23)CC1 [Entry 395, phenylmethyl (3aR,6aS)-5-({4-[4-(5-chloro-2-methylphenyl)piperazin-1-yl]-1H-pyrazolo[3,4-d]pyrimidin-3-yl}methylidene)hexahydrocyclo-penta[c]pyrrole-2(1H)-carboxylate]
IC50 [1]: 1000 to 10000 nM | IC50 [2]: 1000 to 10000 nM

Cc1ccc(Cl)cc1N1CCN(c2ncnc3[nH]nc(/C=C4/C[C@H]5CNC[C@H]5C4)c23)CC1 [Entry 396, 4-[4-(5-chloro-2-methylphenyl)piperazin-1-yl]-3-[(E)-(3aR,6aS)-hexahydrocyclopenta[c]pyrrol-5(1H)-ylidenemethyl]-1H-pyrazolo[3,4-d]pyrimidine]
IC50 [1]: 1000 to 10000 nM | IC50 [2]: 1000 to 10000 nM

Cc1ccc(Cl)cc1N1CCN(c2ncnc3[nH]nc(C#CCN4CCCC4)c23)CC1 [Entry 397, 4-[4-(5-chloro-2-methylphenyl)piperazin-1-yl]-3-(3-pyrrolidin-1-ylprop-1-yn-1-yl)-1H-pyrazolo[3,4-d]pyrimidine]
IC50 [1]: 100 to 1000 nM | IC50 [2]: 1000 to 10000 nM

Cc1ccc(Cl)cc1N1CCN(c2ncnc3[nH]nc(C#CCN4CCN(C)CC4)c23)CC1 [Entry 398, 4-[4-(5-chloro-2-methylphenyl)piperazin-1-yl]-3-[3-(4-methylpiperazin-1-yl)prop-1-yn-1-yl]-1H-pyrazolo[3,4-d]pyrimidine]
IC50 [1]: 100 to 1000 nM | IC50 [2]: 1000 to 10000 nM

CCN(CC)CCCc1n[nH]c2ncnc(N3CCN(c4cc(Cl)ccc4C)CC3)c12 [Entry 399, 3-{4-[4-(5-chloro-2-methylphenyl)piperazin-1-yl]-1H-pyrazolo[3,4-d]pyrimidin-3-yl}-N,N-diethylpropan-1-amine]
IC50 [1]: 1000 to 10000 nM | IC50 [2]: 1000 to 10000 nM

Cc1ccc(Cl)cc1N1CCN(c2ncnc3[nH]nc(C4=CCNCC4)c23)CC1 [Entry 401, 4-[4-(5-chloro-2-methylphenyl)piperazin-1-yl]-3-(1,2,3,6-tetrahydropyridin-4-yl)-1H-pyrazolo[3,4-d]pyrimidine]
IC50 [1]: < 100 nM | IC50 [2]: 1000 to 10000 nM

CCc1n[nH]c2ncnc(N3CCN(c4cc(Cl)cc(CCCN(CC)CC)c4C)CC3)c12 [Entry 402, 3-{5-chloro-3-[4-(3-ethyl-1H-pyrazolo[3,4-d]pyrimidin-4-yl)piperazin-1-yl]-2-methylphenyl}-N,N-diethylpropan-1-amine]
IC50 [1]: < 100 nM | IC50 [2]: 100 to 1000 nM

CCc1n[nH]c2ncnc(N3CCN(c4cc(Cl)cc(CCCN5CCCC5)c4C)CC3)c12 [Entry 403, 4-{4-[5-chloro-2-methyl-3-(3-pyrrolidin-1-ylpropyl)phenyl]piperazin-1-yl}-3-ethyl-1H-pyrazolo[3,4-d]pyrimidine]
IC50 [1]: < 100 nM | IC50 [2]: 100 to 1000 nM

N′-{3-[4-(3-bromo-1H-pyrazolo[3,4-d]pyrimidin-4-yl)piperazin-1-yl]-2-methyl-5-[(2-methyl-propyl)oxy]phenyl}-N,N-diethylethane-1,2-diamine [Entry 185]
IC50 ([1]; Table 1, class symbols per key): < 100 nM | IC50 ([2]; Table 1, class symbols per key): < 100 nM
